Measured values reported in patent US8222267B2 (priority 2009, dated 2012).

Assays:
[1] = Open-label pilot study, adverse events / safety of MOXDUO, PERCOCET and preceding IV PCA morphine
[2] = Pharmacokinetics after single oral co-administered dose of morphine and oxycodone (about 3:2) in healthy subjects; conditions: for AUC0-∞ (dose adjusted) / Cmax: healthy subjects, n = 18
Experimental: Values for the observed maximum plasma concentration (Cmax), total area under the plasma concentration-time curve (AUC0-∞) and the time to maximum plasma concentration (Tmax) were determined.

Question: What does the source list for `CN1CC[C@]23c4c5ccc(O)c4O[C@H]2[C@@H](O)C=C[C@H]3[C@H]1C5` [Morphine, morphine]?
Answer: Overall incidence of nausea, pruritus, constipation, and dizziness ([1]; during IV PCA morphine use vs same time period after first dose of study medication): higher; Subjects with moderate or severe nausea ([1]; while on IV PCA morphine, before study medication): 25%

Question: With `COc1ccc2c3c1O[C@H]1C(=O)CC[C@@]4(O)[C@@H](C2)N(C)CC[C@]314` [Oxycodone, oxycodone] as the compound, how does the “AUC0-∞ (dose adjusted)” value ([2]; single oral co-administered dose morphine/oxycodone 3 mg/2 mg) read?
Answer: 9.62 ng·h/mL/mg

Question: And the “AUC0-∞ (dose adjusted)” value ([2]; single oral co-administered dose morphine/oxycodone 12 mg/8 mg)?
Answer: 9.62 ng·h/mL/mg

Question: And the Tmax ([2]; human, plasma, po)?
Answer: 1 h

Question: What about the Cmax ([2]; human, plasma, po, single oral co-administered dose morphine/oxycodone 3 mg/2 mg) of the same compound?
Answer: 4.9 ng/mL

Question: And the Cmax ([2]; human, plasma, po, single oral co-administered dose morphine/oxycodone 12 mg/8 mg)?
Answer: 17.8 ng/mL

Question: What about the “Dose proportionality of plasma levels” value ([2]; single-dose combination, 3 mg/2 mg to 12 mg/8 mg dose range, dose-normalized Cmax and AUC0-∞ within 80-125% limits) of the same compound?
Answer: increase linearly in a dose-proportionate manner
